Measurements as given in patent US7452865B2, “Antagonistic analogs of GH RH (2003)” (The Administrare's of the Tulane Educational Fund, priority 2004, dated 2008).
Marks after values point to notes of the source that are not given here. Square brackets hold non-standard residues; d marks the D form. Peptide text beside a SMILES is read from it. * marks the point of attachment. Phe(4-Cl) = N[C@@H](Cc1ccc(Cl)cc1)C(=O)O; Dip = N[C@H](C(=O)O)C(c1ccccc1)c1ccccc1; HOOC(CH2)8CO = O=C(O)CCCCCCCCC(=O)*; hArg = N=C(N)NCCCC[C@H](N)C(=O)O; Nle = CCCC[C@H](N)C(=O)O; Abu = CC[C@H](N)C(=O)O; PhAc = O=C(Cc1ccccc1)*

What was measured:
[1] = tested on: GH-RH receptor isoforms on membrane fractions of human PC-3 prostate tumors; format: binding; details: for binding affinities to the tumoral receptors for GH-RH (in words): general statement
Source text: Ligand competition assays with ^125I-labeled GH-RH antagonist JV-1-42 were used to determine the binding affinities of GH-RH analogs to the GH-RH receptor isoforms on membrane fractions of human PC-3 prostate tumors. The methods used have been described in detail (Halmos G, Schally A V, Varga J L, Plonowski A, Rekasi Z, Czompoly T, Proc Natl Acad Sci USA 97: 10555-10560, 2000; Halmos G, Schally A V, Czompoly T, Krupa M, Varga J L, Rekasi Z, J Clin Endocrinol Metab 87: 4707-4714, 2002), hereby incorporated by reference. Briefly, radioiodinated derivatives of JV-142 are prepared by the chloramine-T method. PC-3 tumors, grown as xenografts in nude mice, are used to prepare crude membranes. PC-3 membrane homogenates are incubated with [^125I]JV-142 and increasing concentrations (10^−12 to 10^−6 M) of nonradioactive antagonist peptides as competitors. The pellet is separated by centrifugation and counted for radioactivity in a gamma-counter. The final binding affinities are estimated by K1 (dissociation constant of the inhibitor-receptor complex) and are determined by the Ligand PC and McPherson computer programs of Munson and Rodbard (P. J. Munson and D. Rodbard, Anal. Biochem. […]: 220-239, 1980). Relative affinities (R.A.) compared to reference peptides such as JV-1-36 or JV-1-38, are calculated as the ratio of K1 of the reference peptide to the K, of the tested GH-RH antagonist.

[2] = tested on: PC-3 human prostate cancer xenografts; assay: PC-3 xenografts in nude mice, Experiment 3: tumor growth; format: in vivo; details: for antitumor effect on PC-3 tumors (in words): 10 μg/day; for Tumor volume (mm^3) Final / Tumor volume doubling time / Tumor weight / Tumor volume Final (% inhibition) / Tumor weight (% inhibition): 10 μg/day s.c., 28 days; for Tumor volume Final (% inhibition) / Tumor weight (% inhibition): vs control; for Tumor volume (mm^3) Initial: at start of treatment
Procedure: Male nude mice were implanted s.c. with 3 mm^3 pieces of PC-3 human hormone-independent prostate cancer tissue on both flanks. When tumors reached a volume of approximately 65 mm^3, the mice were divided into 7 experimental groups with 8 to 9 animals in each group and received single daily injections for 28 days as follows: 1. Control (vehicle solution); 2. JV-1-38 (10 μg/day s.c.); 3. Peptide 35 (10 μg/day s.c.); 4. Peptide 36 (10 μg/day s.c.); 5. Peptide 37 (10 μd/day s.c.); 6. Peptide 39 (10 μg/day s.c.); 7. Peptide 41 (10 μg/day s.c.). Tumor volumes were measured twice a week. The experiment was ended on day 28 by sacrificing the mice under Isofurane anesthesia. Resulting tumors were cleaned, weighed, and snapfrozen until further analyses. Trunk blood was collected from the abdominal aorta and serum was separated for RIA measurement of IGF-I. Statistical analyses of the measurement results were done by ANOVA followed by Fisher test; data are presented as the means±S.E.

[3] = tested on: hGH-RH(1-29)NH2 induced GH release; assay: Inhibition of GH release in superfused rat pituitary system; format: cell-based; details: for GH response (% of control) 0 min / GH response (% of control) 30 min / GH response (% of control) 60 min / GH response (% of control) 90 min / GH response (% of control) 120 min: antagonist 30 nM; for GH response (% of control) 0 min: 1 nM hGH-RH(1-29)NH2 at 0 min; for GH response (% of control) 30 min: 1 nM hGH-RH(1-29)NH2 at 30 min; for GH response (% of control) 60 min: 1 nM hGH-RH(1-29)NH2 at 60 min; for GH response (% of control) 90 min: 1 nM hGH-RH(1-29)NH2 at 90 min; for GH response (% of control) 120 min: 1 nM hGH-RH(1-29)NH2 at 120 min; for endocrine antagonistic potency: inhibition of the GH release stimulated by hGH-RH(1-29)NH2 (in words): general statement, in vitro and in vivo
Procedure, shortened: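 Dispersed rat pituitary cells in superfusion were preincubated 9 min with analog at various concentrations, then stimulated with 1 nM hGH-RH(1-29)NH2 for 3 min, repeated at 30, 60, 90, 120 min to gauge duration. GH measured by double-antibody RIA; net integrated responses expressed as percent of the initial 1 nM GH-RH response.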

Compound	binding affinities to the tumoral receptors for GH-RH (in words) [1]	antitumor effect on PC-3 tumors (in words) [2]	Tumor volume (mm^3) Final [2]	Tumor volume doubling time [2]	Tumor weight [2]	Tumor volume Final (% inhibition) [2]	Tumor weight (% inhibition) [2]	Tumor volume (mm^3) Initial [2]	GH response (% of control) 0 min [3]	GH response (% of control) 30 min [3]	GH response (% of control) 60 min [3]	GH response (% of control) 90 min [3]	GH response (% of control) 120 min [3]	endocrine antagonistic potency: inhibition of the GH release stimulated by hGH-RH(1-29)NH2 (in words) [3]	Relative Affinities (R.A.) to membrane receptors on PC-3 human prostate cancers [1]
CCCC[C@H](NC(=O)[C@@H](NC(=O)[C@H](CC(=O)O)NC(=O)[C@H](CCC(N)=O)NC(=O)[C@H](CC(C)C)NC(=O)[C@H](CC(C)C)NC(=O)[C@H](CCCCN)NC(=O)[C@H](CCCNC(=N)N)NC(=O)[C@H](C)NC(=O)[C@H](CO)NC(=O)[C@H](CC(C)C)NC(=O)[C@H](CCC(N)=O)NC(=O)[C@H](CC)NC(=O)[C@H](CC(C)C)NC(=O)[C@@H](NC(=O)[C@H](CCCCN)NC(=O)[C@H](CCCNC(=N)N)NC(=O)[C@@H](NC(=O)[C@H](CCCCNC(=N)N)NC(=O)[C@H](CC(N)=O)NC(=O)[C@@H](NC(=O)[C@H](Cc1ccc(Cl)cc1)NC(=O)[C@@H](NC(=O)[C@H](C)NC(=O)[C@H](CC(=O)O)NC(=O)[C@@H](CCCNC(=N)N)NC(=O)[C@H](Cc1ccc(O)cc1)NC(=O)Cc1ccccc1)[C@@H](C)CC)[C@@H](C)O)C(c1ccccc1)c1ccccc1)C(C)C)[C@@H](C)CC)C(=O)N[C@H](CCCNC(=N)N)C(=O)N[C@@H](CCCCNC(=N)N)C(N)=O [Peptide 36, [PhAc-Tyr^1, D-Arg^2, Phe(pCl)^6, Har^9, Dip^10, Abu^15, Nle^27, D-Arg^28, Har^29]hGH-RH(1-29)NH2] (PhAc-Y[dR]DAI[Phe(4-Cl)]TN[hArg][Dip]RKVL[Abu]QLSARKLLQDI[Nle][dR][hArg]-NH2)	extremely high binding affinities	more potent antitumor effect than reference peptide JV-1-38	214 ± 72.6** mm^3	18.7 ± 3.83 days	361 ± 89.6 mg	(76%)	(48%)	68.0 ± 11.7 mm^3	104 % of control	90 % of control	112 % of control	97 % of control	120 % of control		
[PhAc-Tyr^1, D-Arg^2, Phe(pCl)^6, Har^9, 2-Nal^10, Abu^15, Nle^27, D-Arg^28, Har^29]hGH-RH(1-29)NH2 [Peptide 35]	extremely high binding affinities	more potent antitumor effect than reference peptide JV-1-38	261 ± 52.9** mm^3	17.0 ± 2.32 days	286 ± 58.9 mg	(68%)	(59%)	65.7 ± 11.3 mm^3	91 % of control	57 % of control	80 % of control	66 % of control	72 % of control		
CCCC[C@H](NC(=O)[C@@H](NC(=O)[C@H](CC(=O)O)NC(=O)[C@H](CCC(N)=O)NC(=O)[C@H](CC(C)C)NC(=O)[C@H](CC(C)C)NC(=O)[C@H](CCCCN)NC(=O)[C@H](CCCNC(=N)N)NC(=O)[C@H](C)NC(=O)[C@H](CO)NC(=O)[C@H](CC(C)C)NC(=O)[C@H](CCC(N)=O)NC(=O)[C@H](CC)NC(=O)[C@H](CC(C)C)NC(=O)[C@@H](NC(=O)[C@H](CCCCN)NC(=O)[C@H](CCCNC(=N)N)NC(=O)[C@H](Cc1ccc(OCC)cc1)NC(=O)[C@H](CCCCNC(=N)N)NC(=O)[C@H](CC(N)=O)NC(=O)[C@@H](NC(=O)[C@H](Cc1ccc(Cl)cc1)NC(=O)[C@@H](NC(=O)[C@H](C)NC(=O)[C@H](CC(=O)O)NC(=O)[C@@H](CCCNC(=N)N)NC(=O)[C@H](Cc1ccc(O)cc1)NC(=O)Cc1ccccc1)[C@@H](C)CC)[C@@H](C)O)C(C)C)[C@@H](C)CC)C(=O)N[C@H](CCCNC(=N)N)C(=O)N[C@@H](CCCCNC(=N)N)C(N)=O [Peptide 41, [PhAc-Tyr^1, D-Arg^2, Phe(pCl)^6, Har^9, Tyr(Et)^10, Abu^15, Nle^27, D-Arg^28, Har^29]hGH-RH(1-29)NH2] (PhAc-Y[dR]DAI[Phe(4-Cl)]TN[hArg]Y(Et)RKVL[Abu]QLSARKLLQDI[Nle][dR][hArg]-NH2)	extremely high binding affinities		341 ± 107* mm^3	28.2 ± 9.85 days	579 ± 188 mg	(54%)	(17%)	66.7 ± 12.5 mm^3	47 % of control	16 % of control	14 % of control	15 % of control	16 % of control	high endocrine antagonistic potencies	
[PhAc-Tyr^1, D-Arg^2, Phe(pCl)^6, Har^9, Phe(pNO2)^10, Abu^15, Nle^27, D-Arg^28, Har^29]hGH-RH(1-29)NH2 [Peptide 39]	extremely high binding affinities	more potent antitumor effect than reference peptide JV-1-38	271 ± 109** mm^3	19.6 ± 2.10 days	247 ± 55.4 mg	(66%)	(65%)	66.7 ± 11.2 mm^3	63 % of control	54 % of control	36 % of control	37 % of control	36 % of control		
CCCC[C@H](NC(=O)[C@@H](NC(=O)[C@H](CC(=O)O)NC(=O)[C@H](CCC(N)=O)NC(=O)[C@H](CC(C)C)NC(=O)[C@H](CC(C)C)NC(=O)[C@H](CCCCN)NC(=O)[C@H](CCCNC(=N)N)NC(=O)[C@H](C)NC(=O)[C@H](CO)NC(=O)[C@H](CC(C)C)NC(=O)[C@H](CCC(N)=O)NC(=O)[C@H](CC)NC(=O)[C@H](CC(C)C)NC(=O)[C@@H](NC(=O)[C@H](CCCCN)NC(=O)[C@H](CCCNC(=N)N)NC(=O)[C@H](Cc1ccc(O)cc1)NC(=O)[C@H](CCCNC(=N)N)NC(=O)[C@H](CC(N)=O)NC(=O)[C@@H](NC(=O)[C@H](Cc1ccc(Cl)cc1)NC(=O)[C@@H](NC(=O)[C@H](C)NC(=O)[C@H](CC(=O)O)NC(=O)[C@@H](CCCNC(=N)N)NC(=O)[C@H](Cc1ccc(O)cc1)NC(=O)CCCCCCCCC(=O)O)[C@@H](C)CC)[C@@H](C)O)C(C)C)[C@@H](C)CC)C(=O)N[C@H](CCCNC(=N)N)C(=O)N[C@@H](CCCCNC(=N)N)C(N)=O [Peptide 7, [HOOC(CH2)8CO-Tyr^1, D-Arg^2, Phe(pCl)^6, Arg^9, Abu^15, Nle^27, D-Arg^28, Har^29]hGH-RH(1-29)NH2] ({HOOC(CH2)8CO}-Y[dR]DAI[Phe(4-Cl)]TNRYRKVL[Abu]QLSARKLLQDI[Nle][dR][hArg]-NH2)	extremely high binding affinities								23 % of control	13 % of control	11 % of control	14 % of control	14 % of control	high endocrine antagonistic potencies	12
